Values after ≈ are worked out from the molar mass of the structure shown.
Key:
[1] = test system: Escherichia coli ATCC 25922; assay: Minimum Inhibitory Concentration (MIC) in LB media; type: cell-based; conditions: for MIC: Escherichia coli, ATCC25922, read-out: Minimum Inhibitory Concentration E. coli ATCC 25922
From the text: (§1) The compounds of Formula (I) are of interest due to their potent antibacterial effects. The ability of the invention compounds disclosed herein to achieve an antibacterial effect may be evaluated with regard to their ability to inhibit the growth of bacterial species like Escherichia coli ATCC 25922, Staphylococcus aureus ATCC 29213, Klebsiella pneumoniae ATCC 13883, Acinetobacter baumannii ATCC 19606, Pseudomonas aeruginosa ATCC 27853, Enterococcus faecalis ATCC 29212 and Enterococcus faecalis ATCC 29212 using an assay based on the following Minimum Inhibitory Concentration (MIC) protocol:
(§2) The medium sterility is checked by incubating at 37° C. for a period of 48 h.
(§3) Bacterial cultures that are stored as glycerol stocks at −80° C. are sub cultured on LB agar plates to obtain isolated colonies. A single colony of each strain is cultured in LB broth. The cultures are incubated at 37 C, 200 rpm till they reach an optical density (OD at 600 nm) of 0.8 to 1. […] Test compounds are dissolved in dimethyl sulfoxide (DMSO) to a stock concentration of 4 mg/ml. A twofold dilution series of this DMSO stock is prepared in a 96 well V bottom microtitre plate from rows A to H. A 3 μL volume of these dilutions are transferred to a 96-well flat bottom microtitre assay plate. Controls to monitor the effects of DMSO and media sterility are included. Each well is inoculated with 150 μL of the above diluted culture. The plates are incubated at 37° C. overnight in a humidified incubator. The following morning, the plates are read using a Spectrophotometer at 600 nm wavelength. […] The antibacterial activity (MIC) determined against representative Gram positive (S. aureus, E. faecalis) and Gram negative (E.coli, -P. aeruginosa and A. baumannii) pathogen were reported Table 1.

[2] = test system: Enterococcus faecalis ATCC 29212; assay: Minimum Inhibitory Concentration (MIC) in LB media; type: cell-based; conditions: for MIC: Enterococcus faecalis, ATCC29212, read-out: Minimum Inhibitory Concentration E. faecalis ATCC 29212
From the text: as §1, §2, §3

[3] = test system: Pseudomonas aeruginosa ATCC 27853; assay: Minimum Inhibitory Concentration (MIC) in LB media; type: cell-based; conditions: for MIC: Pseudomonas aeruginosa, ATCC27853, read-out: Minimum Inhibitory Concentration P. aeruginosa ATCC 27853
From the text: as §1, §2, §3

[4] = test system: Staphylococcus aureus ATCC 29213; assay: Minimum Inhibitory Concentration (MIC) in LB media; type: cell-based; conditions: for MIC: Staphylococcus aureus, ATCC29213, read-out: Minimum Inhibitory Concentration S. aureus ATCC 29213
From the text: as §1, §2, §3

[5] = test system: Klebsiella pneumoniae ATCC 13883; assay: Minimum Inhibitory Concentration (MIC) in LB media; type: cell-based; conditions: for MIC: Klebsiella pneumoniae, ATCC13883, read-out: Minimum Inhibitory Concentration K. pneumoniae ATCC 13883
From the text: as §1, §2, §3

[6] = test system: Acinetobacter baumannii ATCC 19606; assay: Minimum Inhibitory Concentration (MIC) in LB media; type: cell-based; conditions: for MIC: Acinetobacter baumannii, ATCC19606;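 for all read-outs here: twofold compound dilutions from DMSO stocks in LB broth microplates, overnight incubation at 37 °C, growth read by absorbance at 600 nm, with DMSO and sterility controls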
E. coli topoisomerase IV = E. coli topoisomerase IV (Escherichia coli, UniProt P0AFI2+P20083); assay: biochemical; conditions: decatenation assay; read-out: E. coli Topo IV IC50
E. coli DNA gyrase = E. coli DNA gyrase (Escherichia coli, UniProt P0AES4+P0AES6); assay: biochemical; conditions: supercoiling assay

Chain of E. coli topoisomerase IV (P20083 whole entry): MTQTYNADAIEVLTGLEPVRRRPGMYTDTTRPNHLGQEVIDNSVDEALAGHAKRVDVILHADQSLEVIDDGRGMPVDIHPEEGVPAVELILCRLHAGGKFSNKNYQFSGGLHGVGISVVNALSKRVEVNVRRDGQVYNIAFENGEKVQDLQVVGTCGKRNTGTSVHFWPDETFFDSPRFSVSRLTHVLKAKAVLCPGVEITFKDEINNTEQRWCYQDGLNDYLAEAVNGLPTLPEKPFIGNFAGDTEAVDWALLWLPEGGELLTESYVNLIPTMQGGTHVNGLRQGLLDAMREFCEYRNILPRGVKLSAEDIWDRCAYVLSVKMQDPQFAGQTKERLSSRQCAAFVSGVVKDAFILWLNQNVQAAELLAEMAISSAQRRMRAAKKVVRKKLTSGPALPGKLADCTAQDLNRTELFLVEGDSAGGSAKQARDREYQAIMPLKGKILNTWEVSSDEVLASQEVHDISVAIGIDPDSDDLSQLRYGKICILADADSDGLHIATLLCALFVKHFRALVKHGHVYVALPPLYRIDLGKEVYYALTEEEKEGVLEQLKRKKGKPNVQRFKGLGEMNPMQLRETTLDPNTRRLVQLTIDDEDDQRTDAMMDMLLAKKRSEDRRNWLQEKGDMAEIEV
Chain of E. coli topoisomerase IV (P0AFI2 whole entry): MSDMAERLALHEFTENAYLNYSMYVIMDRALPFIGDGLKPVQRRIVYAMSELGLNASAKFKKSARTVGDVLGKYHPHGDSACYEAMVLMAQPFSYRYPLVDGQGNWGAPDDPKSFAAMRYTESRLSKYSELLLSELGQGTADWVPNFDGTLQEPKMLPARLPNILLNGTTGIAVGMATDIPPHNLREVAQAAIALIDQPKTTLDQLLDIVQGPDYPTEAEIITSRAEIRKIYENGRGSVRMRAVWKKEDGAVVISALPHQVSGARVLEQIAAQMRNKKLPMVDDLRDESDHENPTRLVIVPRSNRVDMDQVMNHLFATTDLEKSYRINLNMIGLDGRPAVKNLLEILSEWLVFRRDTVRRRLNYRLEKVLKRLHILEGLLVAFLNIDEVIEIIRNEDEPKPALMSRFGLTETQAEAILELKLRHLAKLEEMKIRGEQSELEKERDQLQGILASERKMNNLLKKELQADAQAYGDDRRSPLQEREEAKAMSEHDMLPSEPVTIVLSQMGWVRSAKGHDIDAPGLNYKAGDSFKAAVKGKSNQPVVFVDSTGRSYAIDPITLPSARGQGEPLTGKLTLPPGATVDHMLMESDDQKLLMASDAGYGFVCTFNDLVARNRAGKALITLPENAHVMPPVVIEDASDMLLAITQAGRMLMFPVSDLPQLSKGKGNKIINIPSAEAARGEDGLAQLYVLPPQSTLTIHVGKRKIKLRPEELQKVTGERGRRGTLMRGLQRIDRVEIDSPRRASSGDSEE

Compound	MIC [1] [µg/mL]	MIC [2] [µg/mL]	MIC [3] [µg/mL]	MIC [4] [µg/mL]	MIC [5] [µg/mL]	MIC [6] [µg/mL]	IC50 (E. coli topoisomerase IV) [nM]	IC50 (E. coli DNA gyrase) [nM]	Minimum Inhibitory Concentration E. coli ATCC 25922 [1] [µg/mL]	Minimum Inhibitory Concentration E. faecalis ATCC 29212 [2] [µg/mL]	Minimum Inhibitory Concentration P. aeruginosa ATCC 27853 [3] [µg/mL]	Minimum Inhibitory Concentration S. aureus ATCC 29213 [4] [µg/mL]	Minimum Inhibitory Concentration K. pneumoniae ATCC 13883 [5] [µg/mL]	Minimum Inhibitory Concentration A. baumannii ATCC 19606 [6] [µg/mL]
Cn1c(=O)cnc2ccc(F)c(CCNC[C@H]3CN(c4cnc5c(n4)NC(=O)CO5)C(=O)O3)c21 [Example 30, (S)-6-(5-(((2-(6-fluoro-4-methyl-3-oxo-3,4-dihydroquinoxalin-5-yl)ethyl)amino)methyl)-2-oxooxazolidin-3-yl)-2H-pyrazino[2,3-b][1,4]oxazin-3(4H)-one]	0.06 (≈ 0.128 µM)	0.125 (≈ 0.266 µM)	0.25 (≈ 0.533 µM)	0.03 (≈ 0.0639 µM)	0.06 (≈ 0.128 µM)	0.06 (≈ 0.128 µM)	–	–	–	–	–	–	–	–
Cn1c(=O)ccc2ccc(F)c(C[C@@H](O)CNC[C@H]3CN(c4ccc5c(n4)NC(=O)CO5)C(=O)O3)c21 (single isomer, unassigned) [Example 19]	0.25 (≈ 0.503 µM)	0.5 (≈ 1.01 µM)	2 (≈ 4.02 µM)	0.25 (≈ 0.503 µM)	0.125 (≈ 0.251 µM)	1 (≈ 2.01 µM)	–	–	–	–	–	–	–	–
Cc1nc2ccc(F)c(CCNC[C@H]3CN(c4ccc5c(n4)NC(=O)CO5)C(=O)O3)c2n(C)c1=O [Example 6, (S)-6-(5-(((2-(6-fluoro-2,4-dimethyl-3-oxo-3,4-dihydroquinoxalin-5-yl)ethyl)amino)methyl)-2-oxooxazolidin-3-yl)-2H-pyrido[3,2-b][1,4]oxazin-3(4H)-one]	0.06 (≈ 0.124 µM)	0.125 (≈ 0.259 µM)	1 (≈ 2.07 µM)	0.015 (≈ 0.0311 µM)	0.125 (≈ 0.259 µM)	0.015 (≈ 0.0311 µM)	30	3.4	–	–	–	–	–	–
CN1C(=O)CCc2ccc(F)c(CCNC[C@H]3CN(c4ccc5c(n4)NC(=O)CO5)C(=O)O3)c21 [Example 2, (S)-6-(5-(((2-(7-fluoro-1-methyl-2-oxo-1,2,3,4-tetrahydroquinolin-8-yl)ethyl)amino)methyl)-2-oxooxazolidin-3-yl)-2H-pyrido[3,2-b][1,4]oxazin-3(4H)-one]	0.125 (≈ 0.266 µM)	1 (≈ 2.13 µM)	4 (≈ 8.52 µM)	0.125 (≈ 0.266 µM)	0.25 (≈ 0.533 µM)	0.125 (≈ 0.266 µM)	–	–	–	–	–	–	–	–
Cn1c(=O)cnc2ccc(F)c(CCNC[C@H]3CN(c4ncc5c(n4)NC(=O)CO5)C(=O)O3)c21 [Example 17, (S)-2-(5-(((2-(6-fluoro-4-methyl-3-oxo-3,4-dihydroquinoxalin-5-yl)ethyl)amino)methyl)-2-oxooxazolidin-3-yl)-6H-pyrimido[5,4-b][1,4]oxazin-7(8H)-one]	0.125 (≈ 0.266 µM)	0.25 (≈ 0.533 µM)	2 (≈ 4.26 µM)	0.125 (≈ 0.266 µM)	0.25 (≈ 0.533 µM)	1 (≈ 2.13 µM)	–	–	–	–	–	–	–	–
Cn1c(=O)cnc2ccc(F)c(CCNC[C@H]3CN(c4ccc5c(n4)NC(=O)CO5)C(=O)O3)c21 [Example 4, (S)-6-(5-(((2-(6-fluoro-4-methyl-3-oxo-3,4-dihydroquinoxalin-5-yl)ethyl)amino)methyl)-2-oxooxazolidin-3-yl)-2H-pyrido[3,2-b][1,4]oxazin-3(4H)-one]	0.03 (≈ 0.064 µM)	0.06 (≈ 0.128 µM)	0.25 (≈ 0.534 µM)	≤ 0.015	0.03 (≈ 0.064 µM)	≤ 0.015	93	7	–	–	–	–	–	–
Cn1c(=O)ccc2ncc(F)c(CCCNCC3CN(c4ccc5c(n4)NC(=O)CO5)C(=O)O3)c21 (stereo not drawn) [Example 1b, Chiral 6-(5-(((3-(3-fluoro-5-methyl-6-oxo-5,6-dihydro-1,5-naphthyridin-4-yl)propyl)amino)methyl)-2-oxooxazolidin-3-yl)-2H-pyrido[3,2-b][1,4]oxazin-3(4H)-one]	–	–	–	–	–	–	–	–	<0.5	<4	<16	<4	<1	<0.5
Cn1c(=O)cc(CO)c2ccc(F)c(CCNC[C@H]3CN(c4ccc5c(n4)NC(=O)CO5)C(=O)O3)c21 [Example 12, (S)-6-(5-(((2-(7-fluoro-4-(hydroxymethyl)-1-methyl-2-oxo-1,2-dihydroquinolin-8-yl)ethyl)amino)methyl)-2-oxooxazolidin-3-yl)-2H-pyrido[3,2-b][1,4]oxazin-3(4H)-one]	0.25 (≈ 0.503 µM)	0.5 (≈ 1.01 µM)	1 (≈ 2.01 µM)	0.25 (≈ 0.503 µM)	0.5 (≈ 1.01 µM)	1 (≈ 2.01 µM)	176	< 100	–	–	–	–	–	–

More lines, main results first:

MIC [1] [µg/mL]	MIC [2] [µg/mL]	MIC [3] [µg/mL]	MIC [4] [µg/mL]	MIC [5] [µg/mL]	MIC [6] [µg/mL]	Compound	IC50 (E. coli topoisomerase IV) [nM]	IC50 (E. coli DNA gyrase) [nM]	Minimum Inhibitory Concentration E. coli ATCC 25922 [1] [µg/mL]	Minimum Inhibitory Concentration E. faecalis ATCC 29212 [2] [µg/mL]	Minimum Inhibitory Concentration P. aeruginosa ATCC 27853 [3] [µg/mL]	Minimum Inhibitory Concentration S. aureus ATCC 29213 [4] [µg/mL]	Minimum Inhibitory Concentration K. pneumoniae ATCC 13883 [5] [µg/mL]	Minimum Inhibitory Concentration A. baumannii ATCC 19606 [6] [µg/mL]
0.25 (≈ 0.447 µM)	0.5 (≈ 0.894 µM)	2 (≈ 3.57 µM)	0.03 (≈ 0.0536 µM)	0.25 (≈ 0.447 µM)	0.5 (≈ 0.894 µM)	CS(=O)(=O)CCn1c(=O)ccc2ccc(F)c(CCNC[C@H]3CN(c4ccc5c(n4)NC(=O)CO5)C(=O)O3)c21 [Example 11, (S)-6-(5-(((2-(7-fluoro-1-(2-(methylsulfonyl)ethyl)-2-oxo-1,2-dihydroquinolin-8-yl)ethyl)amino)methyl)-2-oxooxazolidin-3-yl)-2H-pyrido[3,2-b][1,4]oxazin-3(4H)-one]	–	–	–	–	–	–	–	–
0.03 (≈ 0.0604 µM)	0.06 (≈ 0.121 µM)	0.5 (≈ 1.01 µM)	0.015 (≈ 0.0302 µM)	0.125 (≈ 0.252 µM)	0.06 (≈ 0.121 µM)	CCn1c(=O)ccc2ccc(F)c(CCNCC[C@H]3CN(c4cnc5c(n4)NC(=O)CO5)C(=O)O3)c21 [Example 27, (S)-6-(5-(2-((2-(1-ethyl-7-fluoro-2-oxo-1,2-dihydroquinolin-8-yl)ethyl)amino)ethyl)-2-oxooxazolidin-3-yl)-2H-pyrazino[2,3-b][1,4]oxazin-3(4H)-one]	–	–	–	–	–	–	–	–
0.06 (≈ 0.124 µM)	0.06 (≈ 0.124 µM)	0.5 (≈ 1.04 µM)	≤ 0.015	0.06 (≈ 0.124 µM)	0.125 (≈ 0.259 µM)	Cc1cc(=O)n(C)c2c(CCNC[C@H]3CN(c4cnc5c(n4)NC(=O)CO5)C(=O)O3)c(F)ccc12 [Example 28, (S)-6-(5-(((2-(7-fluoro-1,4-dimethyl-2-oxo-1,2-dihydroquinolin-8-yl)ethyl)amino)methyl)-2-oxooxazolidin-3-yl)-2H-pyrazino[2,3-b][1,4]oxazin-3(4H)-one]	–	–	–	–	–	–	–	–
0.03 (≈ 0.0622 µM)	0.03 (≈ 0.0622 µM)	0.5 (≈ 1.04 µM)	≤ 0.015	0.03 (≈ 0.0622 µM)	0.03 (≈ 0.0622 µM)	CCn1c(=O)ccc2ccc(F)c(CCNC[C@H]3CN(c4cnc5c(n4)NC(=O)CO5)C(=O)O3)c21 [Example 26, (S)-6-(5-(((2-(1-ethyl-7-fluoro-2-oxo-1,2-dihydroquinolin-8-yl)ethyl)amino)methyl)-2-oxooxazolidin-3-yl)-2H-pyrazino[2,3-b][1,4]oxazin-3(4H)-one]	–	–	–	–	–	–	–	–
0.06 (≈ 0.117 µM)	0.25 (≈ 0.488 µM)	1 (≈ 1.95 µM)	0.015 (≈ 0.0293 µM)	0.125 (≈ 0.244 µM)	0.125 (≈ 0.244 µM)	COCCn1c(=O)ccc2ccc(F)c(CCNC[C@H]3CN(c4cnc5c(n4)NC(=O)CO5)C(=O)O3)c21 [Example 21, (S)-6-(5-(((2-(7-fluoro-1-(2-methoxyethyl)-2-oxo-1,2-dihydroquinolin-8-yl)ethyl)amino)methyl)-2-oxooxazolidin-3-yl)-2H-pyrazino[2,3-b][1,4]oxazin-3(4H)-one]	–	–	–	–	–	–	–	–
< 0.5	< 4	< 16	< 4	< 1	< 0.5	Cn1c(=O)ccc2ncc(F)c(CCCNCC3CN(c4ccc5c(n4)NC(=O)CO5)C(=O)O3)c21 (racemic) [Example 1, 6-(5-(((3-(3-fluoro-5-methyl-6-oxo-5,6-dihydro-1,5-naphthyridin-4-yl)propyl)amino)methyl)-2-oxooxazolidin-3-yl)-2H-pyrido[3,2-b][1,4]oxazin-3(4H)-one]	–	–	–	–	–	–	–	–
0.125 (≈ 0.259 µM)	0.25 (≈ 0.518 µM)	2 (≈ 4.15 µM)	0.06 (≈ 0.124 µM)	0.25 (≈ 0.518 µM)	0.06 (≈ 0.124 µM)	Cc1nc2ccc(F)c(CCNC[C@@H]3CN(c4ccc5c(n4)NC(=O)CO5)C(=O)O3)c2n(C)c1=O [Example 7, (R)-6-(5-(((2-(6-fluoro-2,4-dimethyl-3-oxo-3,4-dihydroquinoxalin-5-yl)ethyl)amino)methyl)-2-oxooxazolidin-3-yl)-2H-pyrido[3,2-b][1,4]oxazin-3(4H)-one]	–	–	–	–	–	–	–	–
0.125 (≈ 0.266 µM)	0.125 (≈ 0.266 µM)	0.5 (≈ 1.07 µM)	0.03 (≈ 0.0639 µM)	0.125 (≈ 0.266 µM)	0.5 (≈ 1.07 µM)	Cn1c(=O)ccc2ncc(F)c(CCNC[C@H]3CN(c4cnc5c(n4)NC(=O)CO5)C(=O)O3)c21 [Example 29, (S)-6-(5-(((2-(3-fluoro-5-methyl-6-oxo-5,6-dihydro-1,5-naphthyridin-4-yl)ethyl)amino)methyl)-2-oxooxazolidin-3-yl)-2H-pyrazino[2,3-b][1,4]oxazin-3(4H)-one]	–	–	–	–	–	–	–	–

— US10912780B2, “Heterocyclic compounds useful as anti-bacterial agents and method for production thereof” (Bugworks Research, Inc., priority 2017, dated 2021)
